From PubChem BioAssay AID608 (Sanford-Burnham Center for Chemical Genomics, 2007) come the findings set out here.

Activity calls are given as the source filed them. How the calls were made is not given here.

In general, Kd refers to the free concentration of one partner at which half of the binding sites on the other are occupied at equilibrium, for simple one-to-one binding.

Sequence of Peptidyl-prolyl cis-trans isomerase FKBP1A (Homo sapiens) (P62942 whole entry, looked up): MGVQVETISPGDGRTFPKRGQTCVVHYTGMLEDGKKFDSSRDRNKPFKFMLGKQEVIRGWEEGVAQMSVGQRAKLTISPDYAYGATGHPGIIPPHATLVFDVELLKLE

This assay concerns the target Peptidyl-prolyl cis-trans isomerase FKBP1A (Homo sapiens) (UniProt P62942). The experiment in a line: FKBP12 binders, biophysical, NMR detection (AID 608). To be noted: NMR binding, purified FKBP12.
As to `CS(C)=C1C(=O)NC(=O)N(Cc2ccc(F)cc2)C1=O`, the Kd is > 4 mM (inactive). Turning to `NC(=O)CSc1ccc(Br)cc1`, the Kd was > 4 mM (inactive). Regarding `O=C(NCc1n[nH]c(=O)c2ccccc12)C1CC1`, the Kd is > 4 mM (inactive). As to `CC(=O)Nc1ccc(C)cc1NC(C)=O`, the Kd was > 4 mM (inactive).

On to `C=C(C)[C@@H]1[C@H]2OC(=O)[C@@H]1[C@]1(O)C[C@H]3O[C@]34C(=O)O[C@H]2[C@]14C`, for which the Kd is > 4 mM (inactive). Then `Cc1ccc(NS(=O)(=O)N2CCCCC2)cc1`, with 0.425 mM; and `O=C(O)c1cc(O)c(O)c(O)c1`, with > 4 mM (inactive).

`CCCc1ncc(C(O)c2cccc3ccccc23)n1C` (configuration not stated): the Kd is > 4 mM (inactive). For the molecule `O=C(Nc1cccc(Cl)c1)c1cnn2cccnc12`, the Kd was > 4 mM (inactive). Then `CC(C)c1ccc(OCC(=O)N2CCOCC2)cc1`, with 0.394 mM. Take `CC(CCC(=O)O)[C@H]1CCC2C3CC[C@@H]4C[C@H](O)CC[C@]4(C)C3C[C@H](O)[C@@]21C` (some centres not stated): the Kd is > 4 mM (inactive).

Take `C=C[C@@](C)(O)CCC1C(=C)C[C@H](OC(C)=O)C2C(C)(C)CCCC12C` (some centres not stated): the Kd was > 4 mM (inactive). On to `O=C(Nc1ccncc1)c1c(F)cccc1F`, for which the Kd was > 4 mM (inactive).

As for `Cn1c(=O)n(C)c2cc(C(N)=O)ccc21`, the Kd is > 4 mM (inactive). Then `COc1ccc(C(N)=O)cc1NC(C)=O`, with > 4 mM (inactive); and `N#Cc1cc2c(nc1SCc1ccncc1)CCC2`, with > 4 mM (inactive); and `CCOc1cccc(C(=O)c2ccc(O)c(O)c2O)c1`, with > 4 mM (inactive). Then `CC(=O)c1cccc(NC(=O)NN2CCOCC2)c1`, with > 4 mM (inactive). As for `Nc1ccccc1OC(F)(F)F`, the Kd is > 4 mM (inactive).

On to `NC(=O)Cn1nc(-c2ccc(F)cc2)ccc1=O`, for which the Kd is > 4 mM (inactive). In the case of `Oc1ccc(-c2n[nH]c(=S)n2Cc2ccco2)cc1`, the Kd was > 4 mM (inactive).

Take `COc1cc2c(cc1OC)[C@@H]1C(=O)c3ccc4c(c3O[C@@H]1CO2)CC(C(C)C)O4` (some centres not stated): the Kd is > 4 mM (inactive). As to `CC(=O)Nc1ccc(C(=O)NC2CCSC2=O)cc1` (configuration not stated), the Kd was > 4 mM (inactive). For `O=C(O)c1cnn2ccccc12` the value was > 4 mM (inactive); for `O=c1[nH]nc(Cc2ccccn2)c2ccccc12`, > 4 mM (inactive); for `COC(=O)c1nc(-c2ccccc2)oc1N(C)C`, > 4 mM (inactive). Then `O=S(=O)(O)c1cc[n+]([O-])cc1`, with > 4 mM (inactive); and `O=C(O)c1cc(=O)c2cccc(O)c2[nH]1`, with > 4 mM (inactive); and `C=C1C2CC[C@H]3[C@]4(C)C[C@H](OC5OC(CO)C(OS(=O)(=O)O)C(OS(=O)(=O)O)C5OC(=O)CC(C)C)C[C@@H](C(=O)O)[C@H]4CC[C@]3(C2)[C@H]1O` (some centres not stated), with > 4 mM (inactive).

Take `COC(=O)CSc1nnc(-c2ccc(C(=O)O)cc2)o1`: the Kd was > 4 mM (inactive). Turning to `NC(=O)COc1ccccc1O`, the Kd was > 4 mM (inactive). As for `COc1cc2c(cc1OC)[C@@H]1C(=O)c3ccc4c(c3O[C@@H]1CO2)C=CC(C)(C)O4`, the Kd is > 4 mM (inactive). In the case of `O=C(Nc1nncs1)c1c(F)c(F)c(F)c(F)c1F`, the Kd is > 4 mM (inactive). With `O=C(c1ccco1)N1C(=O)c2cccc3cccc1c23`, the Kd was > 4 mM (inactive). In the case of `O=C(Nn1cnnc1)c1ccccc1-c1ccccc1`, the Kd is > 4 mM (inactive).

Regarding `Nc1ncnc2nc[nH]c12`, the Kd is > 4 mM (inactive). Regarding `COc1ccc(-c2coc3c(OC)c(OC)cc(OC)c3c2=O)cc1`, the Kd is > 4 mM (inactive). Consider `CSc1ncc(C(=O)O)n1Cc1ccccc1`, for which the Kd was > 4 mM (inactive).

For the molecule `Cn1nc(C(=O)N2CCOCC2)c2ccccc2c1=O`, the Kd was > 4 mM (inactive). As for `CC(=O)O[C@H]1C[C@@H](OC(C)=O)C(C)(C)C2CC(=O)[C@]3(C)C(CC[C@@]4(C)[C@H](C(=O)O)OC(=O)C5OC543)[C@]21C` (some centres not stated), the Kd was > 4 mM (inactive). On to `Oc1cc(O)cc(/C=C/c2ccccc2)c1`, for which the Kd is > 4 mM (inactive). For `NC1=NC(=O)/C(=C/c2cccs2)S1` the value was > 4 mM (inactive). As to `S=C1NC(=S)NC(c2ccc3c(c2)OCO3)N1`, the Kd was > 4 mM (inactive). For `CC1=NN2C(=N)/C(=C\c3cccs3)C(=O)N=C2S1` the value was > 4 mM (inactive).

`Cc1cc(=O)n2[nH]cnc2n1`: the Kd is > 4 mM (inactive). In the case of `O=c1c(-c2ccco2)[n+]([O-])c2ccccc2n1O`, the Kd is > 4 mM (inactive). `CC(C)NS(=O)(=O)c1ccc(N)cc1`: the Kd was > 4 mM (inactive). Consider `Cc1cc(NC(=O)CSc2ccnc(=O)[nH]2)no1`, for which the Kd was > 4 mM (inactive).

For the molecule `CC(=O)Nc1cccc(-c2n[nH]c(=S)n2C)c1`, the Kd is > 4 mM (inactive). As for `COC(=O)[C@@]1(C)CCC[C@]2(C)c3ccc(O)c(C(C)C)c3CCC12` (some centres not stated), the Kd is > 4 mM (inactive). In the case of `O=C(NCc1ccccc1)c1cnsn1`, the Kd was > 4 mM (inactive). For `CC(C)Nc1nc2n(c(=O)n1)CCN2C(C)C` the value was > 4 mM (inactive); for `NC(=O)c1ccc(SCC(=O)O)c([N+](=O)[O-])c1`, > 4 mM (inactive); for `O=C(Nc1cccc2cccnc12)c1cccnc1`, > 4 mM (inactive). For `CNC(=O)COc1cccc2c1CCNC2=O` the value was > 4 mM (inactive). Then `CC1CCN(C(=O)c2cc3ccccc3o2)CC1`, with > 4 mM (inactive); and `NCc1ccc2c(c1)OCCCO2`, with > 4 mM (inactive); and `Nc1cccc2nsnc12`, with > 4 mM (inactive).

For the molecule `CNC(=O)Nc1ccc(C(=O)NC)cc1`, the Kd is > 4 mM (inactive). As for `Cc1cc(C(=O)Nc2nnc(C(F)(F)F)s2)no1`, the Kd is > 4 mM (inactive). Consider `CC(=O)N=c1cccc(NC(C)=O)n1O`, for which the Kd is > 4 mM (inactive). For `NC(=O)NC1C=CS(=O)(=O)C1` (configuration not stated) the value was > 4 mM (inactive); for `Cc1ccc(CN2C3=NC(=O)CN3c3ccccc32)cc1`, > 4 mM (inactive); for `CC(NC(=O)C1CCCCC1)C(=O)NC1=NCCS1` (configuration not stated), > 4 mM (inactive).

For the molecule `COC(=O)Nc1nc2c(s1)CCCC2`, the Kd was > 4 mM (inactive). As to `COCC(=O)Nc1c(C(N)=O)oc2ccccc12`, the Kd was > 4 mM (inactive).

With `CNC(=S)N1CCN=C1Nc1nc(C)cc(C)n1`, the Kd is > 4 mM (inactive). For `NC12CC3CC(C1)CC(O)(C3)C2`, the Kd was > 4 mM (inactive). `O=C(CSc1ccc2ccccc2c1)N1CCOCC1`: the dissociation constant (Kd) is 0.18 mM. For the molecule `CC(=O)O[C@H]1CC[C@@]2(C)C(=CCC3C2CC[C@@]2(C)C3CC[C@@H]2C(C)CCCC(C)C)C1` (some centres not stated), the Kd is > 4 mM (inactive). For `CCOC(=O)C1CCN(Cc2ccccc2)CC1`, the Kd is > 4 mM (inactive). For `Cc1noc(C)c1C(=O)Nc1sc(C)c(C)c1C#N` the value was > 4 mM (inactive); for `CC(C)(C)NC(=O)N1CCC(C(N)=O)CC1`, > 4 mM (inactive).

Consider `Cc1ccnc(NS(=O)(=O)c2cccs2)c1`, for which the Kd was > 4 mM (inactive). Turning to `Cc1c(C(=O)NCc2ccccn2)oc2ccccc12`, the Kd was > 4 mM (inactive). As for `NCCCCN=C(N)N`, the Kd is > 4 mM (inactive). As to `O=C1COc2cc(O)ccc21`, the Kd is > 4 mM (inactive). `CC(=O)c1cc(-c2nc3ccccc3n2C)n(C)c1`: the Kd was > 4 mM (inactive). As to `C[C@@H]1[C@H]2[C@H](O[C@@H]3O[C@H](CO)[C@@H](O)[C@H](O)[C@H]3O)OC=C(C(=O)O)[C@H]2C[C@@H]1O`, the Kd is > 4 mM (inactive).

For `O=C(Nc1ccc2c(c1)OCO2)c1cccs1`, the Kd was > 4 mM (inactive). For the molecule `NC1=NC(=O)/C(=C\c2ccco2)S1`, the Kd is > 4 mM (inactive). As for `Clc1ccc(-n2ccnc2)nn1`, the Kd was > 4 mM (inactive). As to `NCCN=C1NS(=O)(=O)c2ccccc21`, the Kd was > 4 mM (inactive). Consider `NC(=O)Cc1nc2ccccc2[nH]1`, for which the Kd was > 4 mM (inactive).

On to `COc1c2ccccc2nc2occc12`, for which the Kd was > 4 mM (inactive). Consider `Nn1cnn2c(SCc3ccccc3)nnc12`, for which the Kd is > 4 mM (inactive). For `O=C1NC2NC(=O)N(c3ccccc3)C2N1` (configuration not stated), the Kd was > 4 mM (inactive). Consider `CNC(=O)n1ccc(C(=O)N2CCCCC2)n1`, for which the Kd is > 4 mM (inactive). Take `NC(=O)c1ccccc1NC(=O)c1cccnc1`: the Kd was > 4 mM (inactive). Consider `Cc1ccccc1NC(=O)c1ocnc1C`, for which the Kd was > 4 mM (inactive). Regarding `O=C1CCC(C(=O)NCc2ccc(Cl)cc2)N1` (configuration not stated), the Kd was > 4 mM (inactive). In the case of `c1coc(CNc2ncnc3nc[nH]c23)c1`, the Kd was > 4 mM (inactive). For `CC(=O)N(C)Cc1nc2ccccc2n1C`, the Kd was > 4 mM (inactive). Turning to `C[n+]1ccc(C(=O)[O-])cc1`, the Kd is > 4 mM (inactive). Take `O=c1c2ccccc2[nH]c2ncccc12`: the Kd is > 4 mM (inactive). For `NC(=O)C1CC2C=CC1C2` (configuration not stated) the value was > 4 mM (inactive); for `O=C(NCN1CCOCC1)c1cccnc1`, > 4 mM (inactive); for `O=c1oc2ccccc2cc1O`, > 4 mM (inactive). As for `CC(=O)O[C@H]1C[C@@H](OC(C)=O)C(C)(C)C2C[C@@H](OC(C)=O)[C@@]3(C)C4=CC(=O)O[C@@H](c5ccoc5)[C@]4(C)CCC3[C@]21C` (some centres not stated), the Kd was > 4 mM (inactive). With `Nc1c2c3c(sc2nc(=O)n1N)CCCC3`, the Kd was > 4 mM (inactive). For `CC(=O)Nc1ccncc1NC(C)=O`, the Kd was > 4 mM (inactive).

In the case of `O=C(Nc1nnc(-c2ccccc2Cl)o1)c1ccco1`, the Kd was > 4 mM (inactive).
